# Tests used:
# Mus musculus [1] = assay: Tested in vivo for immunosuppressive activity in mouse using allogenic skin grafting technique(SG); graft survival relative to cyclophosphamide at a dose of 15.0 mg/kg; format: functional
# Mus musculus [2] = assay: Tested in vivo for immunosuppressive activity in mouse using allogenic skin grafting technique(SG); weight at a dose of 15 mg/kg; format: functional
# Mus musculus [3] = assay: Tested in vivo for immunosuppressive activity in mouse using graft vs. Host rejection technique(GVHR); body weight at a dose of 15.0 mg/kg; format: functional
# Mus musculus [4] = assay: Tested in vivo for immunosuppressive activity in mouse using allogenic skin grafting technique(SG); mean graft survival at a dose of 0.15 mg/kg; format: functional
# Mus musculus [5] = assay: Tested in vivo for immunosuppressive activity in mouse using graft vs. Host rejection technique(GVHR);% suppression at a dose of 0.15 mg/kg; format: functional
# Mus musculus [6] = assay: Tested in vivo for immunosuppressive activity in mouse using allogenic skin grafting technique(SG); mean graft survival at a dose of 15.0 mg/kg.; format: functional
# Mus musculus [7] = assay: Tested in vivo for immunosuppressive activity in mouse using graft vs. Host rejection technique(GVHR); spleen weight normalized to D8 body weight at a dose of 15.0 mg/kg; format: functional
# Mus musculus [8] = assay: Tested in vivo for immunosuppressive activity in mouse using graft vs. Host rejection technique(GVHR); weight change at a dose of 1.5 mg/kg.; format: functional
# [9] = Non-cytotoxic IMS activity (ratio LcV/MLR) was determined; format: functional
# Mus musculus [10] = assay: Tested in vivo for immunosuppressive activity in mouse using allogenic skin grafting technique(SG); graft survival relative to cyclophosphamide at a dose of 0.15 mg/kg; format: functional
# Mus musculus [11] = assay: Tested in vivo for immunosuppressive activity in mouse using graft vs. Host rejection technique(GVHR); body weight at a dose of 0.15 mg/kg.; format: functional
# Mus musculus [12] = assay: Tested in vivo for immunosuppressive activity in mouse using allogenic skin grafting technique(SG); mean graft survival at a dose of 1.5 mg/kg; format: functional
# Mus musculus [13] = assay: Tested in vivo for immunosuppressive activity in mouse using graft vs. Host rejection technique(GVHR); % suppression at a dose of 1.5 mg/kg; format: functional
# Mus musculus [14] = assay: Tested in vivo for immunosuppressive activity in mouse using graft vs. Host rejection technique(GVHR); % suppression at a dose of 15.0 mg/kg.; format: functional
# Mus musculus [15] = assay: Tested in vivo for immunosuppressive activity in mouse using allogenic skin grafting technique(SG); weight lost at a dose of 1.50 mg/kg; format: functional; details: dose 1.5 mg/kg
# Mus musculus [16] = assay: Tested in vivo for immunosuppressive activity in mouse using allogenic skin grafting technique(SG); graft survival relative to cyclophosphamide at a dose of 1.5 mg/kg; format: functional
# Mus musculus [17] = assay: Tested in vivo for immunosuppressive activity in mouse using allogenic skin grafting technique(SG); weight lost at a dose of 0.15 mg/kg; format: functional
# Mus musculus [18] = assay: Tested in vivo for immunosuppressive activity in mouse using allogenic skin grafting technique(SG); weight at a dose of 1.50 mg/kg; format: functional; details: dose 1.5 mg/kg
# Mus musculus [19] = organism: Mus musculus; assay: Tested for immunosuppressive activity in mouse using allogenic MLR method; format: functional, organism-based
# [20] = Tested in vitro for cytotoxicity against […](LcV) in cells; format: functional
# Mus musculus [21] = assay: Tested in vivo for immunosuppressive activity in mouse using allogenic skin grafting technique(SG); weight at a dose of 0.15 mg/kg; format: functional
# Mus musculus [22] = assay: Tested in vivo for immunosuppressive activity in mouse using graft vs. Host rejection technique(GVHR); spleen index at a dose of 15.0 mg/kg; format: functional
# Mus musculus [23] = assay: Tested in vivo for immunosuppressive activity in mouse using graft vs. Host rejection technique(GVHR); spleen index at a dose of 0.15 mg/kg; format: functional
# Mus musculus [24] = assay: Tested in vivo for immunosuppressive activity in mouse using graft vs. Host rejection technique(GVHR); body weight at a dose of 1.5 mg/kg; format: functional
# Mus musculus [25] = assay: Tested in vivo for immunosuppressive activity in mouse using graft vs. Host rejection technique(GVHR); weight at a dose of 15 mg/kg; format: functional
# Mus musculus [26] = assay: Tested in vivo for immunosuppressive activity in mouse using graft vs. Host rejection technique(GVHR); weight change at a dose of 15.0 mg/kg; format: functional
# Mus musculus [27] = assay: Tested in vivo for immunosuppressive activity in mouse using graft vs. Host rejection technique(GVHR); spleen weight normalized to D8 body weight at a dose of 1.5 mg/kg; format: functional
# Mus musculus [28] = assay: Tested in vivo for immunosuppressive activity in mouse using graft vs. Host rejection technique(GVHR); spleen weight normalized to D8 body weight at a dose of 0.15 mg/kg; format: functional
# Mus musculus [29] = assay: Tested in vivo for immunosuppressive activity in mouse using graft vs. Host rejection technique(GVHR); spleen index at a dose of 1.5 mg/kg; format: functional
# Mus musculus [30] = assay: Tested in vivo for immunosuppressive activity in mouse using graft vs. Host rejection technique(GVHR); weight change at a dose of 0.15 mg/kg; format: functional
smiles,measurement,setting,value
"COc1cc([C@@H]2c3cc(O)c(O)cc3[C@H](O)[C@H]3COC(=O)[C@H]23)cc(OC)c1OC [6,7-O,O-DEMETHYLENEPODOPHYLLOTOXIN]",graft survival,Mus musculus [1],1.09 days
same,Body weight,Mus musculus [2],1.6 g
same,Body weight,Mus musculus [3],16.3 g
same,Mean graft survival,Mus musculus [4],10 days
same,Activity,Mus musculus [5],167%
same,Mean graft survival,Mus musculus [6],10.7 days
same,Spleen weight,Mus musculus [7],5.75 g
same,Weight change,Mus musculus [8],2.9%
same,Ratio,[9],>4885
same,graft survival,Mus musculus [10],1.02 days
same,Body weight,Mus musculus [11],16.5 g
same,Mean graft survival,Mus musculus [12],12.5 days
same,Activity,Mus musculus [13],85%
same,Activity,Mus musculus [14],44%
same,Body weight,Mus musculus [15],1 g
same,graft survival,Mus musculus [16],1.28 days
same,Body weight,Mus musculus [17],0.7 g
same,Body weight,Mus musculus [18],18.5 g
same,IC50,Mus musculus [19],5.63 ng/mL
same,Cytotoxicity,[20],>27.5 µg/mL
same,Body weight,Mus musculus [21],18.7 g
same,SI,Mus musculus [22],1.15
same,SI,Mus musculus [23],0.82
same,Body weight,Mus musculus [24],16.8 g
same,Body weight,Mus musculus [25],17.8 g
same,Weight change,Mus musculus [26],1.8%
same,Spleen weight,Mus musculus [27],5.2 g
same,Spleen weight,Mus musculus [28],4.1 g
same,SI,Mus musculus [29],1.04
same,Weight change,Mus musculus [30],-1.8%
